According to publication PMC5384110 (European journal of medicinal chemistry, 2017):
pIC50: −log10 of the molar value.

Tests used:
Type in all cases: biochemical, HIV-1
[1] = target: HIV integrase strand transfer (INST) (Human immunodeficiency virus type 1 group M subtype B, UniProt P04585); assay: INST assay
RT mutant Y181C = RT mutant Y181C (Human immunodeficiency virus type 1 group M subtype B, UniProt P04585, Y768C); assay: RT pol assay against RT mutant Y181C
RT mutant K103N = RT mutant K103N (Human immunodeficiency virus type 1 group M subtype B, UniProt P04585, K690N); assay: RT pol assay against RT mutant K103N
HIV RT pol = HIV RT pol (Human immunodeficiency virus type 1 group M subtype B, UniProt P04585); assay: RT pol assay; settings: Table 1; mean ± SD, at least two independent experiments
HIV RT RNase H = HIV RT RNase H (Human immunodeficiency virus type 1 group M subtype B, UniProt P04585); assay: RNase H assay; settings: read-out: RT IC50 RNH; Table 2; 3-deoxy precursor 11; tested up to 10 μM

Compound | pIC50 [1] | also measured
CC(C)c1c(CC2CCCCC2)n(COCc2ccccc2)c(=O)n(O)c1=O [4a, 1-((Benzyloxy)methyl)-6-(cyclohexylmethyl)-3-hydroxy-5-isopropylpyrimidine-2,4(1H,3H)-dione] | < 4.00 | pIC50 (RT mutant Y181C): < 5.00; pIC50 (RT mutant K103N): < 5.00
CC(C)c1c(CC2CCCCC2)n(COCc2ccc(F)cc2)c(=O)n(O)c1=O [4b, 6-(Cyclohexylmethyl)-1-(((4-fluorobenzyl)oxy)methyl)-3-hydroxy-5-isopropylpyrimidine-2,4(1H,3H)-dione] | < 4.00 | 
CCc1c(CC2CCCCC2)n(COCc2ccccc2)c(=O)n(O)c1=O [4c, 1-((Benzyloxy)methyl)-6-(cyclohexylmethyl)-5-ethyl-3-hydroxypyrimidine-2,4(1H,3H)-dione] | < 4.00 | 
CCc1c(CC2CCCCC2)n(COCc2ccc(F)cc2)c(=O)n(O)c1=O [4d, 6-(Cyclohexylmethyl)-5-ethyl-1-(((4-fluorobenzyl)oxy)methyl)-3-hydroxypyrimidine-2,4(1H,3H)-dione] | < 4.00 | 
CCc1c(CC2CCCCC2)n(COCc2cccc(Cl)c2F)c(=O)n(O)c1=O [4e, 1-(((3-Chloro-2-fluorobenzyl)oxy)methyl)-6-(cyclohexylmethyl)-5-ethyl-3-hydroxypyrimidine-2,4(1H,3H)-dione] | < 4.00 | 
CCc1c(CC2CCCCC2)n(COCc2ccc(F)c(F)c2)c(=O)n(O)c1=O [4f, 6-(Cyclohexylmethyl)-1-(((3,4-difluorobenzyl)oxy)methyl)-5-ethyl-3-hydroxypyrimidine-2,4(1H,3H)-dione] | < 4.00 | RT IC50 Pol (HIV RT pol): did not inhibit RT pol
CCc1c(CC2CCCCC2)n(COCc2ccc(C(F)(F)F)cc2)c(=O)n(O)c1=O [4g, 6-(Cyclohexylmethyl)-5-ethyl-3-hydroxy-1-(((4-(trifluoromethyl)benzyl)oxy)methyl)pyrimidine-2,4(1H,3H)-dione] | < 4.00 | 
CCc1c(CC2CCCCC2)n(COCc2ccc(C)cc2)c(=O)n(O)c1=O [4h, 6-(Cyclohexylmethyl)-5-ethyl-3-hydroxy-1-(((4-methylbenzyl)oxy)methyl) pyrimidine-2,4(1H,3H)-dione] | < 4.00 | 
Cc1c(CC2CCCCC2)n(COCc2ccccc2)c(=O)n(O)c1=O [4i, 1-((Benzyloxy)methyl)-6-(cyclohexylmethyl)-3-hydroxy-5-methylpyrimidine-2,4(1H,3H)-dione] | < 4.00 | 
Cc1c(CC2CCCCC2)n(COCc2cccc(Cl)c2F)c(=O)n(O)c1=O [4j, 1-(((3-Chloro-2-fluorobenzyl)oxy)methyl)-6-(cyclohexylmethyl)-3-hydroxy-5-methylpyrimidine-2,4(1H,3H)-dione] | < 4.00 | 
Cc1c(CC2CCCCC2)n(COCc2ccc(F)c(F)c2)c(=O)n(O)c1=O [4k, 6-(Cyclohexylmethyl)-1-(((3,4-difluorobenzyl)oxy)methyl)-3-hydroxy-5-methyl pyrimidine-2,4(1H,3H)-dione] | < 4.00 | 
Cc1c(CC2CCCCC2)n(COCc2ccc(C(F)(F)F)cc2)c(=O)n(O)c1=O [4l, 6-(Cyclohexylmethyl)-3-hydroxy-5-methyl-1-(((4-(trifluoromethyl)benzyl)oxy)methyl)pyrimidine-2,4(1H,3H)-dione] | < 4.00 | 
Cc1c(CC2CCCCC2)n(COCCc2ccc(F)cc2)c(=O)n(O)c1=O [4m, 6-(Cyclohexylmethyl)-1-((4-fluorophenethoxy)methyl)-3-hydroxy-5-methyl pyrimidine-2,4(1H,3H)-dione] | < 4.00 | 
CC(C)c1c(Cc2ccccc2)n(COCc2ccccc2)c(=O)[nH]c1=O [compound 14, TNK-651] |  | pIC50 (HIV RT RNase H): < 5.00
